# Measurements from PubChem BioAssay (NCI).
#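 Assay format: 96-well plates, 48-hour exposure. Abbreviation: GI50, concentration required for 50% inhibition of growth. TGI denotes the concentration required for complete inhibition of growth.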
# Legend:
# Test in all cases: DTP human tumour cell line panel, 48 h
# 786-0 renal = tested on: 786-0 renal
# A498 renal = tested on: A498 renal
# A549 NSCLC = tested on: A549 NSCLC
# ACHN renal = tested on: ACHN renal
# BT-549 breast = tested on: BT-549 breast
# CAKI-1 renal = tested on: CAKI-1 renal
# CCRF-CEM leukemia = tested on: CCRF-CEM leukemia
# COLO 205 colon = tested on: COLO 205 colon
# DU-145 prostate = tested on: DU-145 prostate
# EKVX NSCLC = tested on: EKVX NSCLC
# HCC-2998 colon = tested on: HCC-2998 colon
# HCT-116 colon = tested on: HCT-116 colon
# HCT-15 colon = tested on: HCT-15 colon
# HL-60(TB) leukemia = tested on: HL-60(TB) leukemia
# HOP-62 NSCLC = tested on: HOP-62 NSCLC
# HOP-92 NSCLC = tested on: HOP-92 NSCLC
# HS 578T breast = tested on: HS 578T breast
# HT29 colon = tested on: HT29 colon
# K-562 leukemia = tested on: K-562 leukemia
# KM12 colon = tested on: KM12 colon
# LOX IMVI melanoma = tested on: LOX IMVI melanoma
# M14 melanoma = tested on: M14 melanoma
# MALME-3M melanoma = tested on: MALME-3M melanoma
# MCF7 breast = tested on: MCF7 breast
# MDA-MB-231 breast = tested on: MDA-MB-231 breast
# MDA-MB-435 = tested on: MDA-MB-435
# MDA-N = tested on: MDA-N
# MOLT-4 leukemia = tested on: MOLT-4 leukemia
# NCI-H226 lung = tested on: NCI-H226 lung
# NCI-H23 lung = tested on: NCI-H23 lung
# NCI-H460 lung = tested on: NCI-H460 lung
# NCI/ADR-RES ovarian = tested on: NCI/ADR-RES ovarian
# OVCAR-3 ovarian = tested on: OVCAR-3 ovarian
# OVCAR-4 ovarian = tested on: OVCAR-4 ovarian
# OVCAR-5 ovarian = tested on: OVCAR-5 ovarian
# OVCAR-8 ovarian = tested on: OVCAR-8 ovarian
# PC-3 prostate = tested on: PC-3 prostate
# RPMI-8226 leukemia = tested on: RPMI-8226 leukemia
# SF-268 CNS = tested on: SF-268 CNS
# SF-295 CNS = tested on: SF-295 CNS
# SF-539 CNS = tested on: SF-539 CNS
# SK-MEL-2 melanoma = tested on: SK-MEL-2 melanoma
# SK-MEL-28 melanoma = tested on: SK-MEL-28 melanoma
# SK-MEL-5 melanoma = tested on: SK-MEL-5 melanoma
# SK-OV-3 ovarian = tested on: SK-OV-3 ovarian
# SN12C renal = tested on: SN12C renal
# SNB-19 CNS = tested on: SNB-19 CNS
# SNB-75 CNS = tested on: SNB-75 CNS
# SR leukemia = tested on: SR leukemia
# SW-620 colon = tested on: SW-620 colon
# T-47D breast = tested on: T-47D breast
# TK-10 renal = tested on: TK-10 renal
# U251 CNS = tested on: U251 CNS
# UACC-257 melanoma = tested on: UACC-257 melanoma
# UACC-62 melanoma = tested on: UACC-62 melanoma
# UO-31 renal = tested on: UO-31 renal
# IGROV1 ovarian = tested on: IGROV1 ovarian
# NCI-H522 lung = tested on: NCI-H522 lung
# RXF 393 renal = tested on: RXF 393 renal
structure (smiles),measurement,setting,value
O=C(c1ccccc1)C1N=NCC1c1ccc([N+](=O)[O-])cc1 (centres undefined),TGI,786-0 renal,> 100 µM
same,TGI,A498 renal,> 100 µM
same,TGI,A549 NSCLC,> 100 µM
same,TGI,ACHN renal,> 100 µM
same,TGI,BT-549 breast,65.8 µM
same,TGI,CAKI-1 renal,44.5 µM
same,TGI,CCRF-CEM leukemia,> 100 µM
same,TGI,COLO 205 colon,> 100 µM
same,TGI,DU-145 prostate,> 100 µM
same,TGI,EKVX NSCLC,> 100 µM
same,TGI,HCC-2998 colon,> 100 µM
same,TGI,HCT-116 colon,> 100 µM
same,TGI,HCT-15 colon,> 100 µM
same,TGI,HL-60(TB) leukemia,67.3 µM
same,TGI,HOP-62 NSCLC,> 100 µM
same,TGI,HOP-92 NSCLC,88.1 µM
same,TGI,HS 578T breast,> 100 µM
same,TGI,HT29 colon,> 100 µM
same,TGI,K-562 leukemia,> 100 µM
same,TGI,KM12 colon,> 100 µM
same,TGI,LOX IMVI melanoma,> 100 µM
same,TGI,M14 melanoma,> 100 µM
same,TGI,MALME-3M melanoma,> 100 µM
same,TGI,MCF7 breast,56.9 µM
same,TGI,MDA-MB-231 breast,> 100 µM
same,TGI,MDA-MB-435,> 100 µM
same,TGI,MDA-N,> 100 µM
same,TGI,MOLT-4 leukemia,72.9 µM
same,TGI,NCI-H226 lung,> 100 µM
same,TGI,NCI-H23 lung,> 100 µM
same,TGI,NCI-H460 lung,> 100 µM
same,TGI,NCI/ADR-RES ovarian,> 100 µM
same,TGI,OVCAR-3 ovarian,48.4 µM
same,TGI,OVCAR-4 ovarian,> 100 µM
same,TGI,OVCAR-5 ovarian,> 100 µM
same,TGI,OVCAR-8 ovarian,> 100 µM
same,TGI,PC-3 prostate,> 100 µM
same,TGI,RPMI-8226 leukemia,> 100 µM
same,TGI,SF-268 CNS,> 100 µM
same,TGI,SF-295 CNS,> 100 µM
same,TGI,SF-539 CNS,> 100 µM
same,TGI,SK-MEL-2 melanoma,> 100 µM
same,TGI,SK-MEL-28 melanoma,> 100 µM
same,TGI,SK-MEL-5 melanoma,59.6 µM
same,TGI,SK-OV-3 ovarian,> 100 µM
same,TGI,SN12C renal,> 100 µM
same,TGI,SNB-19 CNS,> 100 µM
same,TGI,SNB-75 CNS,69.2 µM
same,TGI,SR leukemia,84.7 µM
same,TGI,SW-620 colon,> 100 µM
same,TGI,T-47D breast,30.9 µM
same,TGI,TK-10 renal,> 100 µM
same,TGI,U251 CNS,> 100 µM
same,TGI,UACC-257 melanoma,88.4 µM
same,TGI,UACC-62 melanoma,> 100 µM
same,TGI,UO-31 renal,> 100 µM
CN(C)c1nc(=NCc2ccncc2)ss1,TGI,786-0 renal,31.5 µM
same,TGI,A498 renal,> 100 µM
same,GI50,A549 NSCLC,> 100 µM
same,TGI,A549 NSCLC,> 100 µM
same,TGI,ACHN renal,18.7 µM
same,TGI,BT-549 breast,44 µM
same,TGI,CAKI-1 renal,> 56.3 µM
same,TGI,CCRF-CEM leukemia,49.6 µM
same,TGI,COLO 205 colon,> 100 µM
same,GI50,DU-145 prostate,> 100 µM
same,TGI,DU-145 prostate,> 100 µM
same,TGI,EKVX NSCLC,> 100 µM
same,TGI,HCC-2998 colon,> 100 µM
same,TGI,HCT-116 colon,40.7 µM
same,TGI,HCT-15 colon,> 100 µM
same,GI50,HL-60(TB) leukemia,14.2 µM
same,TGI,HL-60(TB) leukemia,47 µM
same,GI50,HOP-62 NSCLC,> 100 µM
same,TGI,HOP-62 NSCLC,> 100 µM
same,TGI,HOP-92 NSCLC,> 100 µM
same,TGI,HS 578T breast,70.3 µM
same,TGI,HT29 colon,38.5 µM
same,TGI,IGROV1 ovarian,> 100 µM
same,TGI,K-562 leukemia,47.7 µM
same,GI50,KM12 colon,> 100 µM
same,TGI,KM12 colon,> 100 µM
same,TGI,LOX IMVI melanoma,31.1 µM
same,TGI,M14 melanoma,36.1 µM
same,TGI,MALME-3M melanoma,> 31.6 µM
same,TGI,MCF7 breast,> 100 µM
same,TGI,MDA-MB-231 breast,> 54 µM
same,TGI,MDA-MB-435,> 100 µM
same,TGI,MDA-N,> 31.6 µM
same,TGI,MOLT-4 leukemia,51.1 µM
same,TGI,NCI-H226 lung,> 100 µM
same,TGI,NCI-H23 lung,38.2 µM
same,TGI,NCI-H460 lung,> 100 µM
same,TGI,NCI-H522 lung,> 100 µM
same,TGI,NCI/ADR-RES ovarian,> 100 µM
same,TGI,OVCAR-3 ovarian,> 82.3 µM
same,TGI,OVCAR-4 ovarian,39.2 µM
same,TGI,OVCAR-5 ovarian,54.4 µM
same,TGI,OVCAR-8 ovarian,34.6 µM
same,TGI,PC-3 prostate,> 63.4 µM
same,TGI,RPMI-8226 leukemia,53.1 µM
same,TGI,RXF 393 renal,92.7 µM
same,TGI,SF-268 CNS,> 100 µM
same,TGI,SF-295 CNS,> 100 µM
same,TGI,SF-539 CNS,> 67 µM
same,TGI,SK-MEL-28 melanoma,> 93.9 µM
same,GI50,SK-MEL-5 melanoma,> 100 µM
same,TGI,SK-MEL-5 melanoma,> 100 µM
same,TGI,SK-OV-3 ovarian,> 64.6 µM
same,TGI,SN12C renal,36 µM
same,TGI,SNB-19 CNS,> 100 µM
same,TGI,SNB-75 CNS,34.7 µM
same,GI50,SR leukemia,19 µM
same,TGI,SR leukemia,44.6 µM
same,TGI,SW-620 colon,50.7 µM
same,TGI,T-47D breast,> 51.8 µM
same,TGI,TK-10 renal,> 100 µM
same,TGI,U251 CNS,32.1 µM
same,TGI,UACC-257 melanoma,> 61.2 µM
same,TGI,UACC-62 melanoma,> 48.1 µM
same,TGI,UO-31 renal,> 80.9 µM
CC(C)(C)NC(=O)[C@H]1CC[C@H]2[C@@H]3CC=C4NC(=O)CC[C@]4(C)[C@H]3CC[C@]12C,TGI,786-0 renal,> 100 µM
same,TGI,A498 renal,> 100 µM
same,TGI,A549 NSCLC,> 100 µM
same,TGI,ACHN renal,> 100 µM
same,TGI,BT-549 breast,> 100 µM
same,TGI,CCRF-CEM leukemia,> 100 µM
same,TGI,COLO 205 colon,> 100 µM
same,TGI,DU-145 prostate,> 100 µM
same,TGI,EKVX NSCLC,> 100 µM
same,TGI,HCC-2998 colon,> 100 µM
same,TGI,HCT-116 colon,> 100 µM
same,TGI,HCT-15 colon,> 100 µM
same,TGI,HL-60(TB) leukemia,> 100 µM
same,TGI,HOP-62 NSCLC,> 100 µM
same,TGI,HOP-92 NSCLC,> 100 µM
same,TGI,HS 578T breast,> 100 µM
same,TGI,HT29 colon,> 100 µM
same,TGI,IGROV1 ovarian,> 100 µM
same,TGI,K-562 leukemia,> 100 µM
same,TGI,KM12 colon,> 100 µM
same,TGI,LOX IMVI melanoma,> 100 µM
same,TGI,M14 melanoma,> 100 µM
same,TGI,MALME-3M melanoma,> 100 µM
same,TGI,MCF7 breast,> 100 µM
same,TGI,MDA-MB-231 breast,> 100 µM
same,TGI,MDA-MB-435,> 100 µM
same,TGI,MDA-N,> 100 µM
same,TGI,MOLT-4 leukemia,> 100 µM
same,TGI,NCI-H226 lung,> 100 µM
same,TGI,NCI-H23 lung,> 100 µM
same,TGI,NCI-H460 lung,> 100 µM
same,TGI,NCI-H522 lung,> 100 µM
same,TGI,NCI/ADR-RES ovarian,> 100 µM
same,TGI,OVCAR-3 ovarian,> 100 µM
same,TGI,OVCAR-4 ovarian,> 100 µM
same,TGI,OVCAR-5 ovarian,> 100 µM
same,TGI,OVCAR-8 ovarian,> 100 µM
same,TGI,PC-3 prostate,> 100 µM
same,TGI,RPMI-8226 leukemia,> 100 µM
same,TGI,RXF 393 renal,> 100 µM
same,TGI,SF-268 CNS,> 100 µM
same,TGI,SF-295 CNS,> 100 µM
same,TGI,SF-539 CNS,> 100 µM
same,TGI,SK-MEL-2 melanoma,> 100 µM
same,TGI,SK-MEL-28 melanoma,> 100 µM
same,TGI,SK-MEL-5 melanoma,> 100 µM
same,TGI,SK-OV-3 ovarian,> 100 µM
same,TGI,SN12C renal,> 100 µM
same,TGI,SNB-19 CNS,> 100 µM
same,TGI,SNB-75 CNS,99 µM
same,TGI,SR leukemia,> 100 µM
same,TGI,SW-620 colon,> 100 µM
same,TGI,T-47D breast,> 100 µM
same,TGI,TK-10 renal,> 100 µM
same,TGI,U251 CNS,> 100 µM
same,TGI,UACC-257 melanoma,> 100 µM
same,TGI,UACC-62 melanoma,> 100 µM
same,TGI,UO-31 renal,> 100 µM
